{"source": "patent US20110217771A1", "about": "“Fluidic Culture Device” (priority 2008, published 2011)", "target": "T1, collagen I matrix (Bos taurus, UniProt P02453+P02465)", "T1 construct": "purchased PureCol (product name as printed)", "T1 sequence (P02453 162-1217 limits assumed)": "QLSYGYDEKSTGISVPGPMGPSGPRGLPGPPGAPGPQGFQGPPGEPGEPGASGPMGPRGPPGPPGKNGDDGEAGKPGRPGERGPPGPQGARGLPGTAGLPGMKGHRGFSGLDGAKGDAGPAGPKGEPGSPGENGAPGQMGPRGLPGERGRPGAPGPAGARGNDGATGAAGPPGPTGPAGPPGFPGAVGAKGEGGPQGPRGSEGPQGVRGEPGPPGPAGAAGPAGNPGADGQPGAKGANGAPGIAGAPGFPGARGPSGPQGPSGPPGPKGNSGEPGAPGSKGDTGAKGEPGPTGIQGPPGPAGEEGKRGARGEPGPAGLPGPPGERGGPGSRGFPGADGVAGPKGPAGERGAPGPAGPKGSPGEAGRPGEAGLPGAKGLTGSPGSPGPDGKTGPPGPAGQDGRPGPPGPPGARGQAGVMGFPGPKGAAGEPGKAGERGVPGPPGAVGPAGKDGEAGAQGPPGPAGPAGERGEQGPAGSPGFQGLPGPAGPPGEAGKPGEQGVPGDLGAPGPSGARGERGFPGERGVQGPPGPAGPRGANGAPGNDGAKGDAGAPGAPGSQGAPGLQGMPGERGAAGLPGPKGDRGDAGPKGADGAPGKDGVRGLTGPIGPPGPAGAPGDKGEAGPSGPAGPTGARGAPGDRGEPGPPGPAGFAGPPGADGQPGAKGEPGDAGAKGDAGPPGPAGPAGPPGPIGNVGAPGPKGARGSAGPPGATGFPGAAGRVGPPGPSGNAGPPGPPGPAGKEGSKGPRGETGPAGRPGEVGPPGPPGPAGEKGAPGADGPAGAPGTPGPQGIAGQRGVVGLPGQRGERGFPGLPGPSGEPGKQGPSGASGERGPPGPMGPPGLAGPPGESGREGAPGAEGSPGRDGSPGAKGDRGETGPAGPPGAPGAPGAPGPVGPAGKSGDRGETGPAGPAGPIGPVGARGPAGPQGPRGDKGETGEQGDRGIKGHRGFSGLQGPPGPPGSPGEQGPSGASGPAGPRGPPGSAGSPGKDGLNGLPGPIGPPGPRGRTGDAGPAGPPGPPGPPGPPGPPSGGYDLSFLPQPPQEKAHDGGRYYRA", "T1 sequence (P02465 80-1117 limits assumed)": "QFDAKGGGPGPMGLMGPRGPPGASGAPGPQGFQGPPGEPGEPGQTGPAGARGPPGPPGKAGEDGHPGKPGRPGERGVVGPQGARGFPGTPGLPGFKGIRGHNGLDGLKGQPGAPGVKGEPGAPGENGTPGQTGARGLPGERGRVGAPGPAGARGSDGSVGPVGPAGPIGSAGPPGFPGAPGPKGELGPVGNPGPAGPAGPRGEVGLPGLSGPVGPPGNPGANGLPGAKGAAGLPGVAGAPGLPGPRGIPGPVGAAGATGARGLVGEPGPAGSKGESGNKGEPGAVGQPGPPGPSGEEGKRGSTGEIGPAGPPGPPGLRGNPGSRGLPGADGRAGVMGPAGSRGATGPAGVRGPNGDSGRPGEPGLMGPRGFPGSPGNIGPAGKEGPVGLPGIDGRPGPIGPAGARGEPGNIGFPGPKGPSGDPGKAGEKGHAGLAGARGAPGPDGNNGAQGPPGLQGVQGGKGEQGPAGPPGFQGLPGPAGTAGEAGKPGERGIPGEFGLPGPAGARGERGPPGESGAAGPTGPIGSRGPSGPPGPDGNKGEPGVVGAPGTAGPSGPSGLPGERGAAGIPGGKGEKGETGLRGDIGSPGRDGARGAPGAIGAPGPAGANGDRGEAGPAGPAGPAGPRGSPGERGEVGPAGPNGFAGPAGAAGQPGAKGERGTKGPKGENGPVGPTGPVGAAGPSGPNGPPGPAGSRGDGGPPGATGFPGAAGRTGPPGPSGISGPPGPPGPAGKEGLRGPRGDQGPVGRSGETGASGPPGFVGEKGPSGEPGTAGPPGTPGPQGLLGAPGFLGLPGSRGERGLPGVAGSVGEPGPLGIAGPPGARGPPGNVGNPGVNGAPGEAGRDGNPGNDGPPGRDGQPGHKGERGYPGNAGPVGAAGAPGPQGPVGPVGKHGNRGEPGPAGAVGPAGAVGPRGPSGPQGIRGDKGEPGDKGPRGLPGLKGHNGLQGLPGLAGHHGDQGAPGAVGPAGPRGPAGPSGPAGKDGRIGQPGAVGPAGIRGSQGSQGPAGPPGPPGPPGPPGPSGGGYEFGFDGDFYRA", "experiment": "Gradient generation and characterization in the collagen I matrix of the culture chamber (fluorescence detection)", "experimental": "Invasive angiogenic sprouting in three dimensions was studied by embedding organs or clusters of cells in a collagen I matrix composed of Ham's F12 medium (Promocell), 6.26 mM NaOH, 20 mM HEPES, 0.117% NaHCO3, 1% Glutamax-I (Gibco) and 1.5 mg/ml collagen I (PureCol). The flow channels were sealed prior to casting of the gel by the insertion of PDMS plugs. These were cut out a little wider than the channels (˜7×5×0.6 mm) to prevent the gel from leaking into the flow channels. The gel volume (20 μl) deposited in the culture chamber was approximately twice the size of the chamber volume to account for shrinkage and to make sure that the when the culture system was assembled the gel would be slightly compressed in order to occupy the entire culture chamber. […] The collagen gel was left to polymerize in a regular cell incubator at 37° C. and 5% CO2 for 2 hours. Organs or cell clusters were deposited into the center of the culture chamber using a Pasteur pipette in the beginning of the polymerization process. The tissue can be carefully positioned with a needle or by tapping the side of the culture chamber. Both organs and cells can be grown in the fluidic culture device in its open configuration with the culture chamber facing upwards for several days by adding cell media to cover the top of the open culture chamber.\nStock solutions of recombinant VEGFA165 (PeproTech), FGF2 (PeproTech) and VEGFC (R&D systems) were stored at −20° C. until further use. […]\nFlow in the culture system was generated by connecting two syringes (connected to a syringe pump) to the channel inlets. […] No flow was recorded through the culture chamber when the flow rates in the source and sink channels were kept identical.\nThe gradient profile was initially characterized by detection of F-VEGFA. […] FIG. 10 illustrates time-lapse series of the central part of the culture chamber (1.7×1.3 mm) as a gradient of F-VEGFA is established; gradient formation in the culture chamber was detected by measuring the fluorescent signal. […] The profiles are recorded at the center of the chamber, indicated by black bar in FIG. 12. […]", "key": {"[1]": {"settings": "collagen I matrix, flow 0.5 μl/min"}}, "data": [{"substance": "FITC-dextran", "values": [{"measurement": "affinity for collagen I (accumulation at the edge of the gel)", "setting": "1.5 mg/ml collagen I matrix", "value": "little or no affinity for collagen I"}, {"measurement": "time after which the gradient was stable", "setting": "[1]", "value": "approximately 6 hours"}, {"measurement": "time to formation of a linear gradient after onset of flow", "setting": "[1]", "value": "≤ 2", "unit": "h"}]}]}
